# Assay results from ChEMBL document CHEMBL1154043, “Synthesis and structure-activity relationship of a novel series of heterocyclic sulfonamide gamma-secretase inhibitors” (Bioorg Med Chem, 2009).
# Calls of active or inactive are those of the source. The calls are words filed in the database; no cut-off is given here.
# System: CHO
# Assay: Inhibition of gamma-secretase-mediated cleavage of human APP expressed in CHO cells assessed as reduction in amyloid beta42 production after 24 hrs by double sandwich ELISA
# Type: cell-based
row,Structure (SMILES),Activity
1,COc1ccc(Cn2nccc2C(C)NS(=O)(=O)c2ccc(Cl)s2)cc1 (stereo unspecified),Active
2,CCC(CC)C(NS(=O)(=O)c1ccc(C#N)cc1)c1ccnn1-c1ccccc1 (stereo unspecified),Active
3,CCC(CC)C(NS(=O)(=O)c1ccc(Cl)s1)c1ccnn1S(=O)(=O)c1ccc(C)cc1 (stereo unspecified),Active
4,CCC(CC)C(NS(=O)(=O)c1cc(Cl)c(Cl)s1)c1ccnn1-c1ccccc1 (stereo unspecified),Active
5,CCC(CC)C(NS(=O)(=O)c1ccc(Cl)cc1)c1ccnn1Cc1ccc(OC)cc1 (stereo unspecified),Active
6,Cc1ccc(Cn2ncnc2C(NS(=O)(=O)c2ccc(Cl)s2)C(C)C)cc1 (stereo unspecified),Active
7,CCC(CC)C(NS(=O)(=O)c1ccc(Cl)s1)c1ncnn1Cc1ccc(OC(F)(F)F)cc1 (stereo unspecified),Active
8,CCC(CC)C(NS(=O)(=O)c1ccc(Br)s1)c1ccnn1-c1ccccc1 (stereo unspecified),Active
9,CCC(CC)C(NS(=O)(=O)c1ccc(Cl)cc1)c1ccnn1-c1ccccc1 (stereo unspecified),Active
10,CCC(CC)C(NS(=O)(=O)c1ccc(Cl)s1)c1ccnn1-c1ccccc1 (stereo unspecified),Active
11,Cc1cccc(-n2nccc2C(NS(=O)(=O)c2ccc(Cl)s2)C(C)C)c1 (stereo unspecified),Active
12,CCC(CC)C(NC(=O)c1ccc(Cl)cc1)c1ccnn1Cc1ccc(OC)cc1 (stereo unspecified),Active
13,CCC(CC)C(NS(=O)(=O)c1ccc(Cl)s1)c1ccnn1-c1ccc(OC)cc1 (stereo unspecified),Active
14,CC(C)[C@H](NS(=O)(=O)c1ccc(Cl)s1)c1ccnn1-c1ccc(F)cc1,Active
15,CCC(CC)C(NS(=O)(=O)c1ccc(Cl)s1)c1nccn1Cc1ccc(OC)cc1 (stereo unspecified),Active
16,CCC(CC)C(NS(=O)(=O)c1ccc(Cl)c(Cl)c1)c1ccnn1-c1ccccc1 (stereo unspecified),Active
17,Cc1ccc(-n2nccc2[C@H](NS(=O)(=O)c2ccc(Cl)s2)C(C)C)cc1,Active
18,CCCCn1nccc1C(NS(=O)(=O)c1ccc(Cl)s1)C(CC)CC (stereo unspecified),Active
19,CCC(CC)C(NS(=O)(=O)c1ccc(Cl)s1)c1ccnn1-c1ccc(C(F)(F)F)cc1 (stereo unspecified),Active
20,CCC(CC)C(c1ccnn1-c1ccccc1)N(C)S(=O)(=O)c1ccc(Cl)s1 (stereo unspecified),Active
21,CCC(CC)[C@@H](NS(=O)(=O)c1ccc(Cl)s1)c1ccnn1Cc1ccc(O)cc1,Active
22,CCC(CC)C(NS(=O)(=O)c1ccc(Cl)s1)c1ncnn1Cc1ccccc1 (stereo unspecified),Active

# System: not listed separately
# Assay: Inhibition of gamma-secretase-mediated cleavage of human APP expressed in CHO cells assessed as reduction in amyloid beta40 production after 24 hrs by double sandwich ELISA
# Type: cell-based
row,Structure (SMILES),EC50 [nM]
1,CCC(CC)C(NS(=O)(=O)c1ccc(C#N)cc1)c1ccnn1-c1ccccc1 (stereo unspecified),85200
2,CCC(CC)C(NS(=O)(=O)c1cc(Cl)c(Cl)s1)c1ccnn1-c1ccccc1 (stereo unspecified),13400
3,CCC(CC)C(NS(=O)(=O)c1ccc(Cl)cc1)c1ccnn1Cc1ccc(OC)cc1 (stereo unspecified),1980
4,CCC(CC)C(NS(=O)(=O)c1ccc(Br)s1)c1ccnn1-c1ccccc1 (stereo unspecified),1530
5,CCC(CC)C(NS(=O)(=O)c1ccc(Cl)cc1)c1ccnn1-c1ccccc1 (stereo unspecified),23000
6,CCC(CC)C(NC(=O)c1ccc(Cl)cc1)c1ccnn1Cc1ccc(OC)cc1 (stereo unspecified),42400
7,CCC(CC)C(NS(=O)(=O)c1ccc(Cl)c(Cl)c1)c1ccnn1-c1ccccc1 (stereo unspecified),25500
8,CCC(CC)C(c1ccnn1-c1ccccc1)N(C)S(=O)(=O)c1ccc(Cl)s1 (stereo unspecified),70200

# Now from value to compound:
row,EC50 [nM],Structure (SMILES)
1,1200,COc1ccc(Cn2nccc2C(C)NS(=O)(=O)c2ccc(Cl)s2)cc1 (stereo unspecified)
2,1680,CCC(CC)C(NS(=O)(=O)c1ccc(Cl)s1)c1ccnn1S(=O)(=O)c1ccc(C)cc1 (stereo unspecified)
3,2890,Cc1ccc(Cn2ncnc2C(NS(=O)(=O)c2ccc(Cl)s2)C(C)C)cc1 (stereo unspecified)
4,990,CCC(CC)C(NS(=O)(=O)c1ccc(Cl)s1)c1ncnn1Cc1ccc(OC(F)(F)F)cc1 (stereo unspecified)
5,1620,CCC(CC)C(NS(=O)(=O)c1ccc(Cl)s1)c1ccnn1-c1ccccc1 (stereo unspecified)
6,2530,Cc1cccc(-n2nccc2C(NS(=O)(=O)c2ccc(Cl)s2)C(C)C)c1 (stereo unspecified)
7,1560,CCC(CC)C(NS(=O)(=O)c1ccc(Cl)s1)c1ccnn1-c1ccc(OC)cc1 (stereo unspecified)
8,1010,CC(C)[C@H](NS(=O)(=O)c1ccc(Cl)s1)c1ccnn1-c1ccc(F)cc1
9,50600,CCC(CC)C(NS(=O)(=O)c1ccc(Cl)s1)c1nccn1Cc1ccc(OC)cc1 (stereo unspecified)
10,> 15000,Cc1ccc(-n2nccc2[C@H](NS(=O)(=O)c2ccc(Cl)s2)C(C)C)cc1
11,1000,CCCCn1nccc1C(NS(=O)(=O)c1ccc(Cl)s1)C(CC)CC (stereo unspecified)
12,2190,CCC(CC)C(NS(=O)(=O)c1ccc(Cl)s1)c1ccnn1-c1ccc(C(F)(F)F)cc1 (stereo unspecified)
13,8500,CCC(CC)[C@@H](NS(=O)(=O)c1ccc(Cl)s1)c1ccnn1Cc1ccc(O)cc1
14,1010,CCC(CC)C(NS(=O)(=O)c1ccc(Cl)s1)c1ncnn1Cc1ccccc1 (stereo unspecified)

# Target: Gamma-secretase (Homo sapiens) (UniProt Q96BI3+Q9NZ42+Q8WW43+P49768+Q92542+P49810)
# Assay: Displacement of [3H](S)-5-chloro-N-(3-ethyl-1-hydroxypentan-2-yl)thiophene-2-sulfonamide from gamma secretase in human SH-SY5Y cells after 1 hr
# Type: cell-based
row,Activity,Structure (SMILES)
1,Active,CC(C)[C@H](O)C(=O)N[C@@H](C)C(=O)N[C@@H]1C(=O)N(C)CCc2ccccc21
2,Active,C[C@H](NC(=O)Cc1cc(F)cc(F)c1)C(=O)N[C@H](C(=O)OC(C)(C)C)c1ccccc1
3,Active,C[C@H](NC(=O)[C@@H](O)c1cc(F)cc(F)c1)C(=O)N[C@@H]1C(=O)N(C)c2ccccc2-c2ccccc21

# System: not listed separately
# Assay: Inhibition of gamma-secretase assessed as increase in beta-C-terminal fragment level after 24 hrs by double sandwich ELISA
row,Structure (SMILES),Activity
1,CCC(CC)C(NS(=O)(=O)c1ccc(C#N)cc1)c1ccnn1-c1ccccc1 (stereo unspecified),Active
2,CCC(CC)C(NS(=O)(=O)c1cc(Cl)c(Cl)s1)c1ccnn1-c1ccccc1 (stereo unspecified),Active
3,CCC(CC)C(NS(=O)(=O)c1ccc(Cl)cc1)c1ccnn1Cc1ccc(OC)cc1 (stereo unspecified),Active
4,CCC(CC)C(NS(=O)(=O)c1ccc(Br)s1)c1ccnn1-c1ccccc1 (stereo unspecified),Active
5,CCC(CC)C(NS(=O)(=O)c1ccc(Cl)cc1)c1ccnn1-c1ccccc1 (stereo unspecified),Active
6,CCC(CC)C(NC(=O)c1ccc(Cl)cc1)c1ccnn1Cc1ccc(OC)cc1 (stereo unspecified),Active
7,CCC(CC)C(NS(=O)(=O)c1ccc(Cl)c(Cl)c1)c1ccnn1-c1ccccc1 (stereo unspecified),Active
8,CCC(CC)C(c1ccnn1-c1ccccc1)N(C)S(=O)(=O)c1ccc(Cl)s1 (stereo unspecified),Active

# Next, values leading:
row,Activity,Structure (SMILES)
1,Active,COc1ccc(Cn2nccc2C(C)NS(=O)(=O)c2ccc(Cl)s2)cc1 (stereo unspecified)
2,Active,CCC(CC)C(NS(=O)(=O)c1ccc(Cl)s1)c1ccnn1S(=O)(=O)c1ccc(C)cc1 (stereo unspecified)
3,Active,Cc1ccc(Cn2ncnc2C(NS(=O)(=O)c2ccc(Cl)s2)C(C)C)cc1 (stereo unspecified)
4,Active,CCC(CC)C(NS(=O)(=O)c1ccc(Cl)s1)c1ncnn1Cc1ccc(OC(F)(F)F)cc1 (stereo unspecified)
5,Active,CCC(CC)C(NS(=O)(=O)c1ccc(Cl)s1)c1ccnn1-c1ccccc1 (stereo unspecified)
6,Active,Cc1cccc(-n2nccc2C(NS(=O)(=O)c2ccc(Cl)s2)C(C)C)c1 (stereo unspecified)
7,Active,CCC(CC)C(NS(=O)(=O)c1ccc(Cl)s1)c1ccnn1-c1ccc(OC)cc1 (stereo unspecified)
8,Active,CC(C)[C@H](NS(=O)(=O)c1ccc(Cl)s1)c1ccnn1-c1ccc(F)cc1
9,Active,CCC(CC)C(NS(=O)(=O)c1ccc(Cl)s1)c1nccn1Cc1ccc(OC)cc1 (stereo unspecified)
10,Active,Cc1ccc(-n2nccc2[C@H](NS(=O)(=O)c2ccc(Cl)s2)C(C)C)cc1
11,Active,CCCCn1nccc1C(NS(=O)(=O)c1ccc(Cl)s1)C(CC)CC (stereo unspecified)
12,Active,CCC(CC)C(NS(=O)(=O)c1ccc(Cl)s1)c1ccnn1-c1ccc(C(F)(F)F)cc1 (stereo unspecified)
13,Active,CCC(CC)[C@@H](NS(=O)(=O)c1ccc(Cl)s1)c1ccnn1Cc1ccc(O)cc1
14,Active,CCC(CC)C(NS(=O)(=O)c1ccc(Cl)s1)c1ncnn1Cc1ccccc1 (stereo unspecified)

# System: not listed separately
# Assay: Inhibition of gamma-secretase assessed as effect on APP level after 24 hrs by double sandwich ELISA
row,Structure (SMILES),Activity
1,CCC(CC)C(NS(=O)(=O)c1ccc(C#N)cc1)c1ccnn1-c1ccccc1 (stereo unspecified),Active
2,CCC(CC)C(NS(=O)(=O)c1cc(Cl)c(Cl)s1)c1ccnn1-c1ccccc1 (stereo unspecified),Active
3,CCC(CC)C(NS(=O)(=O)c1ccc(Cl)cc1)c1ccnn1Cc1ccc(OC)cc1 (stereo unspecified),Active
4,CCC(CC)C(NS(=O)(=O)c1ccc(Br)s1)c1ccnn1-c1ccccc1 (stereo unspecified),Active
5,CCC(CC)C(NS(=O)(=O)c1ccc(Cl)cc1)c1ccnn1-c1ccccc1 (stereo unspecified),Active
6,CCC(CC)C(NC(=O)c1ccc(Cl)cc1)c1ccnn1Cc1ccc(OC)cc1 (stereo unspecified),Active
7,CCC(CC)C(NS(=O)(=O)c1ccc(Cl)c(Cl)c1)c1ccnn1-c1ccccc1 (stereo unspecified),Active
8,CCC(CC)C(c1ccnn1-c1ccccc1)N(C)S(=O)(=O)c1ccc(Cl)s1 (stereo unspecified),Active

# More lines, now with the values ahead:
row,Activity,Structure (SMILES)
1,Active,COc1ccc(Cn2nccc2C(C)NS(=O)(=O)c2ccc(Cl)s2)cc1 (stereo unspecified)
2,Active,CCC(CC)C(NS(=O)(=O)c1ccc(Cl)s1)c1ccnn1S(=O)(=O)c1ccc(C)cc1 (stereo unspecified)
3,Active,Cc1ccc(Cn2ncnc2C(NS(=O)(=O)c2ccc(Cl)s2)C(C)C)cc1 (stereo unspecified)
4,Active,CCC(CC)C(NS(=O)(=O)c1ccc(Cl)s1)c1ncnn1Cc1ccc(OC(F)(F)F)cc1 (stereo unspecified)
5,Active,CCC(CC)C(NS(=O)(=O)c1ccc(Cl)s1)c1ccnn1-c1ccccc1 (stereo unspecified)
6,Active,Cc1cccc(-n2nccc2C(NS(=O)(=O)c2ccc(Cl)s2)C(C)C)c1 (stereo unspecified)
7,Active,CCC(CC)C(NS(=O)(=O)c1ccc(Cl)s1)c1ccnn1-c1ccc(OC)cc1 (stereo unspecified)
8,Active,CC(C)[C@H](NS(=O)(=O)c1ccc(Cl)s1)c1ccnn1-c1ccc(F)cc1
9,Active,CCC(CC)C(NS(=O)(=O)c1ccc(Cl)s1)c1nccn1Cc1ccc(OC)cc1 (stereo unspecified)
10,Active,Cc1ccc(-n2nccc2[C@H](NS(=O)(=O)c2ccc(Cl)s2)C(C)C)cc1
11,Active,CCCCn1nccc1C(NS(=O)(=O)c1ccc(Cl)s1)C(CC)CC (stereo unspecified)
12,Active,CCC(CC)C(NS(=O)(=O)c1ccc(Cl)s1)c1ccnn1-c1ccc(C(F)(F)F)cc1 (stereo unspecified)
13,Active,CCC(CC)[C@@H](NS(=O)(=O)c1ccc(Cl)s1)c1ccnn1Cc1ccc(O)cc1
14,Active,CCC(CC)C(NS(=O)(=O)c1ccc(Cl)s1)c1ncnn1Cc1ccccc1 (stereo unspecified)
